# Test results as given in patent US10098906B2, “Modulation of the physical interaction between platelets and the cell surface effecting cell proliferation” (Cell Receptor GmbH, priority 2013, dated 2018).
# “And” between values parts separate entries of the source, which are not always exact repeats. Identical values can stand only once.
# Experiments:
# [1] = fraction of heparin activity; cited from earlier work
# [2] = tested on: HeLa cells, clone S3; assay: Adhesion experiment (platelet binding to cell surface), microscopic quantification; format: cell-based, human; details: for Inhibition of platelet binding to growing cells: 0.1 ppm, FIG. 11, triplicate; for Inhibition of platelet binding to growing cells (in words): concentration not stated; for Reduction of platelet binding to the cells: 0.01 U/mL; for Inhibition of the binding of platelets to the HeLa cells: 0.1 U/mL, FIGS. 5 to 9
# Method: The process for evaluating the platelet binding of growing cells involves the isolation of platelets from peripheral blood with two subsequent washes and cell sedimentation. These washes include a partial activation of the platelets, which is relevant for their interaction with Heparin. The incubation with the cells under investigation takes place under conditions in which full activation of platelets is approached, which would lead to lumps forming in the platelets. This would hinder analysis. Therefore, a low concentration of EDTA is added to the assay. The quantification of platelets and the calculation of the surface portions of cells and background is carried out using appropriate software, namely by macros in the open source program ImageJ.
# Virus and mycoplasma free HeLa cells, clone S3, and human skin fibroblasts (NHDF) were purchased from Promo Cell, Heidelberg. Their human origin was confirmed by STR-Analysis. HeLa cells were maintained in Eagles MEM with 10% fetal calf serum. The NHDF were also maintained with 10% fetal calf serum in RPMI 1640. The passaging was performed by trypsin-EDTA treatment. The cell lines were maintained in either 25 ml bottles or in 3 cm plates.
# The cells used for the experiment are cultured for 2 or 3 days in standard plates. At the start of the experiment about ⅓ of the plate surface should be covered with cells. The culture plates are subsequently washed with the buffer mixture described above and filled with further buffer mixture. For example, 30 mm culture dishes are filled with 2 ml 37° C. pre-warmed buffer mixture and 3×10^7 platelets obtained from the above-mentioned suspension.
# The platelet-treated plates are incubated at 37° C. for 60 minutes. In this incubation, the pretreated platelets adhere to proliferating cells. However, cells of G0-phase bind little or none of the pre-treated platelets. This stage of incubation is when the substance to be tested is added to the cell culture buffer, in order to detect whether an effect on platelet binding is observed.
# After the one hour incubation, the plates are washed at room temperature with the above mentioned buffer mixture until no free water floating platelets (generally 2 to 4 washes) are present and immediately fixed with glutaraldehyde (1% v/v in H2O).
# The evaluation is carried out photographically. For this purpose, the image analysis program ImageJ is applied. The number of cell-bound platelets in relation to the recorded cell number of cells is determined. Additionally, the number of cell-bound platelets in relation to the cell-covered area may be determined.
# Images are produced after the fixation in triplicate per plate. Phase contrast or brightfield 25×, 16× or 10× objectives are used. Image analysis is carried out according to SOP IJ. The open source program ImageJ may be used to for differential image subtraction and mask optimization. Subsequently, platelet number, cell number and proportional cell surface are determined by other IJ components.
# [3] = tested on: platelets; assay: In vitro platelet aggregation compared with UFH; format: cell-based; details: in vitro studies
# [4] = Anticoagulant activity compared with heparin; details: in vitro studies
# [5] = tested on: HeLa cells; assay: Cell culture experiment for testing inhibition of cell proliferation (daily co-incubation with platelets, serum-free); format: cell-based, human; details: inhibitor 1.0 or 0.1 μg/mL co-incubated with platelets 30 minutes daily, serum-free Eagle's MEM
# Method: In order to interrogate the effectiveness of PPS and DXS with respect to the inhibition of cell growth, the following experiment may be carried out.
# Experiment duration: 5 days; Culture medium: Eagle's MEM without serum addition.
# Test approach: PPS or DXS in 1.0, 0.1 μg/mL, and control (0 μg/mL final concentration).
# HeLa cells are cultured from stocks: 10^4 cells/25 cm^2 flask, cell numbers are counted in a Fuchs-Rosenthal chamber. Platelets are prepared as described above.
# Platelets and HeLa cells, or other tumor cell lines, either with or without inhibitor, are co-incubated for 30 minutes once every day, for 1 to 4 days. After co-incubation the cells are washed as described above and then allowed to rest under standard culture conditions. Typically 90×10^6 platelets are incubated per well per day.
# On day 5, cells are washed with HBSS, photographed, trypsinized and the cell number counted as described above.
substance,measurement,setting,value
Dextran sulfate sodium salt from Leuconostoc spec [DXS],Anticoagulant activity relative to heparin,[1],much weaker
same,Inhibition of platelet binding to growing cells,[2],roughly 75%
same,Inhibition of platelet binding to growing cells (in words),[2],reproducible inhibition
same,Platelet aggregation in comparison to UFH,[3],reduced platelet aggregation
same,Anticoagulation in comparison to UFH,[4],reduced anticoagulation
same,Increase of cell number (proliferation) on day 5,[5],increases to a reduced extent
dalteparin,Reduction of platelet binding to the cells,[2],significant reduction
same,Inhibition of the binding of platelets to the HeLa cells,[2],almost completely inhibited
danaparoid,Difference in platelet binding between control and treatment,"[2]; 1.25 U/mL, about 5 times the upper limit of the therapeutic range",no significant difference
same,Cell-bound platelets per cell,"[2]; 1.25 U/mL, control 15.9+/-7.7 platelets/cell",13.2 platelets/cell
same,Inhibition of platelet binding to growing cells (in words),[2],significantly lower effect
same,Inhibition of platelet binding to growing cells (in words),[2]; listed as Danaparoid,to a lower extent
dermatan sulfate,Inhibition of platelet binding to growing cells (in words),[2],significantly less effective
enoxaparin,Reduction of platelet binding to the cells,[2],significant reduction
same,Inhibition of the binding of platelets to the HeLa cells,[2],almost completely inhibited
heparan sulfate,Inhibition of platelet binding to growing cells (in words),[2],significantly less effective
pentosan polysulfate [PPS],Anticoagulant activity relative to heparin,[1],less than 1/10 and much weaker and 1/15
same,Inhibition of platelet binding to growing cells,[2],roughly 75%
same,Inhibition of platelet binding to growing cells (in words),[2],reproducible inhibition
same,Platelet aggregation in comparison to UFH,[3],reduced platelet aggregation
same,Anticoagulation in comparison to UFH,[4],reduced anticoagulation
same,Increase of cell number (proliferation) on day 5,[5],increases to a reduced extent
tinzaparin,Reduction of platelet binding to the cells,[2],significant reduction
same,Inhibition of the binding of platelets to the HeLa cells,[2],almost completely inhibited
